This note sets out measurements from the NIST ThermoML archive (doi:10.1016/j.jct.2013.11.020).

A short description of series [1]: refractive index (Na D-line) (dimensionless). To be noted: 298.15 K; 101.33 kPa; Liquid; Standard Abbe refractometry.
For series [2] the following is noted: 298.15 K; 101.33 kPa; Liquid; Vibrating tube method.

± gives the expanded uncertainty stated by the source.

The refractive index is the speed of light in vacuum divided by its phase velocity in the sample. The term mass density denotes the mass of a sample divided by its volume. Regarding `CCCC[n+]1ccn(C)c1.O=S(=O)([N-]S(=O)(=O)C(F)(F)F)C(F)(F)F`, the refractive index in series [1] is listed as 1.42706 ± 0.00037. Further, in series [2], the mass density is recorded as 1436.35 ± 0.61 kg/m3.

`CCCn1cc[n+](C)c1.O=S(=O)([N-]S(=O)(=O)C(F)(F)F)C(F)(F)F`: the refractive index in series [1] came out at 1.42526 ± 0.00037. For the same compound, the mass density in series [2] is listed as 1474.44 ± 0.65 kg/m3.

In the case of `CCCCn1cc[n+](C)c1.COS(=O)(=O)[O-]` [1-butyl-3-methylimidazolium methyl sulfate], the refractive index in series [1] was found to be 1.47792 ± 0.00037. In addition, the mass density in series [2] was found to be 1212.59 ± 0.41 kg/m3.

As for `C1=CCCCC1` [cyclohexene], in series [1], the refractive index is given as 1.44378 ± 0.00037. In addition, the mass density in series [2] is on record as 805.69 ± 0.24 kg/m3.

With `CCc1ccccc1` [ethylbenzene], the refractive index in series [1] is 1.49304 ± 0.00031. Moreover, the mass density in series [2] is 862.51 ± 0.13 kg/m3.

In the case of `CCCCCC` [hexane], in series [1], the refractive index stood at 1.37234 ± 0.00033. Moreover, in series [2], the mass density is reported as 655.19 ± 0.2 kg/m3.

For `Cc1ccccc1` [toluene], the refractive index in series [1] was 1.49399 ± 0.00031. In series [2], the mass density worked out at 862.17 ± 0.13 kg/m3.
